Data reported in PubChem BioAssay (NCI).
Several values for one entry are separate records, joined by “and”; a condition that tells them apart may be missing. Equal values may be shown once.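 Briefly, cells in 96-well plates were exposed to five compound concentrations for 48 h, and endpoints were estimated by linear interpolation. The concentration for 50% growth inhibition is given as GI50. TGI denotes the concentration required for complete inhibition of growth.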

What was measured:
Experiment in all cases: NCI tumour cell line growth inhibition, 48 h
COLO 205 colon = tested on: COLO 205 colon
DU-145 prostate = tested on: DU-145 prostate
HCT-15 colon = tested on: HCT-15 colon
HL-60(TB) leukemia = tested on: HL-60(TB) leukemia
HS 578T breast = tested on: HS 578T breast
MDA-MB-231 breast = tested on: MDA-MB-231 breast
NCI-H226 lung = tested on: NCI-H226 lung
NCI/ADR-RES ovarian = tested on: NCI/ADR-RES ovarian
OVCAR-5 ovarian = tested on: OVCAR-5 ovarian
NCI-H23 lung = tested on: NCI-H23 lung

| Structure (SMILES) | TGI (COLO 205 colon) | TGI (DU-145 prostate) | TGI (HCT-15 colon) | GI50 (HL-60(TB) leukemia) | TGI (HS 578T breast) | TGI (MDA-MB-231 breast) | TGI (NCI-H226 lung) | GI50 (NCI/ADR-RES ovarian) | TGI (NCI/ADR-RES ovarian) | TGI (OVCAR-5 ovarian) | TGI (HL-60(TB) leukemia) | TGI (NCI-H23 lung) | GI50 (COLO 205 colon) | GI50 (DU-145 prostate) | GI50 (MDA-MB-231 breast) | GI50 (NCI-H226 lung) | GI50 (NCI-H23 lung) | GI50 (OVCAR-5 ovarian) | GI50 (HS 578T breast) | GI50 (HCT-15 colon) |
| --- | --- | --- | --- | --- | --- | --- | --- | --- | --- | --- | --- | --- | --- | --- | --- | --- | --- | --- | --- | --- |
| O=C1c2c(O)ccc(O)c2C(=O)c2c(NCCNCCO)ccc(NCCNCCO)c21 | 1.23 µM and 0.769 µM and 1.16 µM | 0.0832 µM and 0.465 µM and 0.31 µM | 2.55 µM and 24 µM and 4.15 µM | 0.0127 µM | 0.296 µM and 1.88 µM and 1.03 µM | 1.45 µM and 2.38 µM and 1.11 µM | 0.0547 µM and 0.1 µM and 0.136 µM | 1.41 µM and 1.64 µM and 3.86 µM | > 100 µM and 50 µM and 23.9 µM | 1.05 µM and 4.75 µM and 2.74 µM | – | – | – | – | – | – | – | – | – | – |
| OCCN(CCO)c1ncnc2c1sc(=S)n2-c1ccccc1 | > 100 µM | – | > 100 µM | – | – | – | > 100 µM | – | – | > 100 µM | > 100 µM | > 100 µM | – | – | – | – | – | – | – | – |
| C(/C=C/N1CCCC1)=C\c1nc(N2CCCC2)c2ccccc2n1 | 28.5 µM | – | 32.5 µM | – | – | – | 39.7 µM | – | – | 28.9 µM | 61.3 µM | 32.9 µM | – | – | – | – | – | – | – | – |
| COC(=O)Cc1cc(=O)oc2c1C(=O)CCC2 | > 100 µM | – | > 100 µM | – | – | – | > 100 µM | – | – | > 100 µM | > 100 µM | > 100 µM | – | – | – | – | – | – | – | – |
| COC(=O)C1=C(C(=O)OC)C(C(=O)OC)C(C(=O)OC)C(C(=O)OC)(C(=O)OC)C(C(=O)OC)=C1C(=O)OC (configuration not stated) | 16.8 µM | 32.1 µM | 21.2 µM | – | 75.3 µM | 40.1 µM | 25.1 µM | – | – | 35.3 µM | 4.95 µM | 35.8 µM | – | – | – | – | – | – | – | – |
| CCOC(=O)/N=c1\ssc(Cl)c1Cl | 44.8 µM | 19.4 µM | – | 6.41 µM | – | 28.7 µM | > 100 µM | 4.11 µM | > 100 µM | 28.1 µM | > 100 µM | 11.3 µM | 19 µM | 4.72 µM | 6.95 µM | 27.8 µM | 3.25 µM | 4.86 µM | – | – |
| O=C1[C@H]2ON(c3ccccc3)C(c3cccc([N+](=O)[O-])c3)[C@H]2C(=O)N1c1ccc(Cc2ccc(N3C(=O)[C@@H]4ON(c5ccccc5)C(c5cccc([N+](=O)[O-])c5)[C@@H]4C3=O)cc2)cc1 (some centres not stated) | > 100 µM | – | > 100 µM | – | – | – | > 100 µM | – | – | > 100 µM | > 100 µM | > 100 µM | – | – | – | – | – | – | – | – |
| COc1cc2c3c(c1OC)/C(=N/OS(=O)(=O)c1ccc(C)cc1)CC3N(S(=O)(=O)c1ccc(C)cc1)CC2 (configuration not stated) | > 100 µM | – | – | – | – | – | > 100 µM | – | – | > 100 µM | > 100 µM | > 100 µM | – | – | – | – | – | – | – | – |
| CCOc1ccccc1NC(=O)CCC(=O)NN | > 100 µM | – | > 100 µM | – | – | – | > 100 µM | – | – | > 100 µM | > 100 µM | > 100 µM | – | – | – | – | – | – | – | – |
| COC(=O)C1=C(C(=O)OC)N(C(C)C)[C@H]2C(C(=O)OC)=C(C(=O)OC)N(C(C)C)[C@@H]12 | > 100 µM | – | > 100 µM | – | – | – | > 100 µM | – | – | > 100 µM | > 100 µM | > 100 µM | – | – | – | – | – | – | – | – |
| O=c1c2ccccc2c(=O)c2c1sc1c(=O)c3ccc(O)cc3c(=O)c12 | – | 0.312 µM | – | 2.38 µM | 0.973 µM | 8.19 µM | – | 1.45 µM | 6.87 µM | 3.65 µM | 9.77 µM | 0.505 µM | – | 0.174 µM | 1.72 µM | – | 0.181 µM | 1.74 µM | 0.33 µM | – |
| O=C1OC(c2ccc(Cl)c3ccccc23)c2ccccc21 (configuration not stated) | > 100 µM | – | > 100 µM | – | – | – | – | – | – | > 100 µM | > 100 µM | > 100 µM | – | – | – | – | – | – | – | – |
| COc1cc2c(c(OC)c1OC)-c1ccc(SC)c(=O)cc1[C@@H](NC(=O)c1ccc(F)cc1)CC2 | 0.0388 µM and < 0.01 µM | – | – | – | – | – | 0.0744 µM and < 0.01 µM | – | – | > 100 µM | 12.7 µM | < 0.01 µM | < 0.01 µM | – | – | < 0.01 µM | < 0.01 µM | – | – | 0.043 µM |
| COc1cc(/C=C2/C(=O)N(C(=O)c3ccccc3O)N=C2C)ccc1O | > 80.7 µM | > 100 µM | > 100 µM | – | > 100 µM | > 100 µM | 31.2 µM | – | > 100 µM | > 100 µM | > 52.9 µM | – | – | – | – | – | – | – | – | – |
| C/C(N=NC(=S)N1CCCCCC1)=C1\C=CC=CN1O | 55.2 µM | > 100 µM | > 100 µM | – | > 100 µM | > 100 µM | > 90.3 µM | – | – | > 100 µM | 1.74 µM | > 56.2 µM | – | – | – | – | – | – | – | – |
| CCOC(=O)c1cc(C(=O)O)c(=O)n2c1[nH]c1ccccc12 | > 100 µM | – | > 100 µM | – | – | – | – | – | – | – | > 100 µM | > 100 µM | – | – | – | – | – | – | – | – |
| CCCC/C=C1\CCC(CN2CCCC2)C1=O (configuration not stated) | 26.1 µM | – | 11.2 µM | – | – | – | 31.8 µM | – | – | 33.4 µM | 31.4 µM | 32.1 µM | – | – | – | – | – | – | – | – |
| O=C(NOC(=O)c1ccc([N+](=O)[O-])cc1)c1ccc(Cl)cc1 | > 100 µM | – | > 100 µM | – | – | – | – | – | – | > 100 µM | 34.3 µM | > 100 µM | – | – | – | – | – | – | – | – |
| C=C1c2ccccc2N(S(=O)(=O)c2ccc(C)cc2)C12CCCCC2 | > 100 µM | – | > 100 µM | – | – | – | > 100 µM | – | – | > 100 µM | > 100 µM | > 100 µM | – | – | – | – | – | – | – | – |
| O=C(O)C(CS)N=Cc1nc(-c2ccccc2)oc1O (configuration not stated) | > 100 µM | – | > 100 µM | – | – | – | > 100 µM | – | – | > 100 µM | > 100 µM | > 100 µM | – | – | – | – | – | – | – | – |
| COc1ccc2nc3cc(Cl)ccc3c(Nc3ccc(O)c(CN4CCCC4)c3)c2c1 | 3.48 µM | 4.77 µM | 10.3 µM | 2.18 µM | – | 3.84 µM | 3.75 µM | 1.93 µM | 4.54 µM | 7.62 µM | 6.08 µM | 7.08 µM | 1.83 µM | 2.16 µM | 1.66 µM | 1.84 µM | 2.22 µM | 2.89 µM | – | 2.6 µM |
| Cc1nnc(N=Nc2c(O)[nH]c3ccccc23)[nH]c1=O | – | > 100 µM | > 100 µM | – | > 100 µM | > 100 µM | > 100 µM | – | > 100 µM | > 100 µM | > 100 µM | – | – | – | – | – | – | – | – | – |
| CC(=O)c1c(Nc2ccc(F)c(F)c2F)[nH]c2c(F)cc(F)cc2c1=O | – | > 100 µM | 1.73 µM | 0.372 µM | 8.69 µM | 1.77 µM | 1.87 µM | 0.322 µM | 34.5 µM | 25.4 µM | – | 4.41 µM | – | 0.403 µM | 0.285 µM | 0.297 µM | 0.286 µM | 0.552 µM | 0.293 µM | 0.331 µM |
